Measurements reported in patent EP0326331B1, “Substituted quinolines and cinnolines” (Dow AgroSciences LLC, priority 1988, dated 1989).

Experiments:
Type in all cases: in vivo
[1] = test system: Twospotted spider mites (Tetranychus urticae Koch); experiment: Mite/insect screen, SM; conditions: for mortality at 200 ppm / mortality at 400 ppm: Tetranychus urticae, foliar, percent mortality, foliar spray on squash, read-out: SM RESULTS %; for mortality at 200 ppm: rate 200 ppm; for mortality at 400 ppm: rate 400 ppm; for activity as miticides: summary statement in the description
How it was run: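 Foliar spray to runoff (10 psi), 1 h drying; aqueous dilutions from acetone/alcohol emulsifier stock. Mortality (%) after standard exposure.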

[2] = test system: Pyricularia oryzae (rice blast); experiment: whole plant or invertebrate; conditions: for RICE BLAST: disease control rating, foliar spray on rice, 400 ppm (+++ at 100 ppm); for pest or weed control at 400 ppm: Pyricularia oryzae, foliar, read-out: RICE BLAST, Test 1, foliar spray on rice, disease control rating at 400 ppm / 100 ppm
[3] = test system: melon aphids (Aphis gossypii Glover); experiment: Mite/insect screen, MA; conditions: Aphis gossypii, foliar, percent mortality, foliar spray on squash, read-out: MA RESULTS %; for mortality at 200 ppm: rate 200 ppm; for mortality at 400 ppm: rate 400 ppm
How it was run: (§1)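 Read-out: percent mortality after standard exposure periods. Test solutions were water dilutions of compound dissolved in acetone/alcohol (50:50) with emulsifier blends; leaves were sprayed to runoff on both surfaces and air-dried for one hour before exposure.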

corn rootworm = experiment: Mite/insect screen, CRW; conditions: percent mortality, read-out: CRW RESULTS %; for mortality at 12 ppm: CRW rate 12.00 ppm; for mortality at 24 ppm: CRW rate 24.00 ppm
How it was run: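 Read-out: % mortality after standard exposure. Formulation: acetone/alcohol (50:50) with emulsifiers at 23 g and 13 g per liter, water-diluted to final test levels.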

[4] = test system: Puccinia recondita tritici (leaf rust); experiment: Test 1 greenhouse foliar spray screen, leaf rust on wheat; conditions: for LEAF RUST: disease control rating, foliar spray on wheat, 400 ppm (+++ at 100 ppm); for pest or weed control at 400 ppm: Puccinia recondita, foliar, Test 1, foliar spray on wheat, disease control rating at 400 ppm / 100 ppm
[5] = test system: Pseudoperonospora cubensis (downy mildew); experiment: Test 1 greenhouse foliar spray screen, downy mildew on squash; conditions: for DOWN MDEW: disease control rating, foliar spray on squash, 400 ppm (+++ at 100 ppm); for pest or weed control at 400 ppm: Pseudoperonospora cubensis, foliar, Test 1, foliar spray on squash, disease control rating at 400 ppm / 100 ppm, read-out: DOWN MDEW
[6] = test system: southern armyworm (Spodopetra eridania Cramer); experiment: Mite/insect screen, SAW; conditions: Spodoptera eridania, foliar, percent mortality, foliar spray on squash, read-out: SAW RESULTS %; for mortality at 200 ppm: rate 200 ppm; for mortality at 400 ppm: rate 400 ppm
How it was run: as §1

[7] = test system: Erysiphe graminis tritici (powdery mildew); experiment: Test 1 greenhouse foliar spray screen, powdery mildew on wheat; conditions: for POWD MDEW: disease control rating, foliar spray on wheat, 400 ppm (+++ at 100 ppm); for pest or weed control at 400 ppm: Blumeria graminis, foliar, Test 1, foliar spray on wheat, disease control rating at 400 ppm / 100 ppm, read-out: POWD MDEW
[8] = test system: Botrytis cinerea (gray mold); experiment: Test 1 greenhouse foliar spray screen, gray mold on grape berries; conditions: for GRAY MOLD: disease control rating, spray on grape berries, 400 ppm (+++ at 100 ppm); for pest or weed control at 400 ppm: Botrytis cinerea, foliar, Test 1, spray on grape berries, disease control rating at 400 ppm / 100 ppm

| SMILES | mortality at 200 ppm [1] [%] | mortality at 400 ppm [1] [%] | RICE BLAST [2] | mortality at 200 ppm [3] [%] | mortality at 400 ppm [3] [%] | mortality at 12 ppm (corn rootworm) [%] | mortality at 24 ppm (corn rootworm) [%] | LEAF RUST [4] | DOWN MDEW [5] | mortality at 200 ppm [6] [%] | mortality at 400 ppm [6] [%] | POWD MDEW [7] | GRAY MOLD [8] | pest or weed control at 400 ppm [2] [%] | pest or weed control at 400 ppm [4] [%] | pest or weed control at 400 ppm [5] [%] | pest or weed control at 400 ppm [7] [%] | pest or weed control at 400 ppm [8] [%] | activity as miticides [1] |
| --- | --- | --- | --- | --- | --- | --- | --- | --- | --- | --- | --- | --- | --- | --- | --- | --- | --- | --- | --- |
| FC(F)(F)c1ccc2c(NCCC3=CCCCC3)ccnc2c1 [Example 167, N-[2-(1-cyclohexenyl)ethyl]-7-(trifluoromethyl)-4-quinolinamine] | 0 | 0 | - (0-19% control at 400 ppm) | 0 | 0 | 0 | 0 | - (0-19% control at 400 ppm) | + (20-89% control at 400 ppm) | 0 | 0 | + (20-89% control at 400 ppm) | - (0-19% control at 400 ppm) | – | – | – | – | – | – |
| Fc1cccc2c(NCCC3CCCCC3)ccnc12 [Example 177, N-(2-cyclohexylethyl)-8-fluoro-4-quinolinamine] | 0 | 0 | +++ (90-100% control at 100 ppm) | 0 | 0 | 0 | 100 | +++ (90-100% control at 100 ppm) | +++ (90-100% control at 100 ppm) | 0 | 0 | ++ (90-100% control at 400 ppm) | - (0-19% control at 400 ppm) | – | – | – | – | – | – |
| Cc1cc(C)c2nccc(NCCC3CCCCC3)c2c1 [Example 178, N-(2-cyclohexylethyl)-6,8-dimethyl-4-quinolinamine] | 0 | 0 | + (20-89% control at 400 ppm) | 0 | 0 | 0 | 0 | ++ (90-100% control at 400 ppm) | +++ (90-100% control at 100 ppm) | 0 | 0 | - (0-19% control at 400 ppm) | - (0-19% control at 400 ppm) | – | – | – | – | – | – |
| CC(=O)N(CCc1ccc(Cl)cc1)c1cc(N(CCc2ccc(Cl)cc2)C(C)=O)c2ccccc2n1 [Example 182, N,N'-(2,4-quinolinediyl)bis[N-[2-(4-chlorophenyl)ethyl]acetamide]] | 0 | 0 | + (20-89% control at 400 ppm) | 0 | 0 | 0 | 0 | - (0-19% control at 400 ppm) | - (0-19% control at 400 ppm) | 0 | 0 | - (0-19% control at 400 ppm) | - (0-19% control at 400 ppm) | – | – | – | – | – | – |
| Clc1ccc(CCNc2ccc3nccc(NCCc4ccc(Cl)cc4)c3c2)cc1 [Example 185, N,N'-bis[2-(4-chlorophenyl)ethyl]-4,6-quinolinediamine] | 0 | 0 | + (20-89% control at 400 ppm) | 0 | 0 | 0 | 0 | + (20-89% control at 400 ppm) | + (20-89% control at 400 ppm) | 0 | 0 | - (0-19% control at 400 ppm) | - (0-19% control at 400 ppm) | – | – | – | – | – | – |
| Fc1cccc2c(NCCc3ccc(Cl)cc3)cc(NCCc3ccc(Cl)cc3)nc12 [Example 188, N,N'-bis[2-(4-chlorophenyl)ethyl]-8-fluoro-2,4-quinolinediamine] | – | 0 | – | – | 0 | – | 0 | – | – | – | 0 | – | – | 90 to 100 | 20 to 89 | 90 to 100 | 0 to 19 | 0 to 19 | – |
| CC(=O)N(CCc1ccc(Cl)cc1)c1ccc2c(N(CCc3ccc(Cl)cc3)C(C)=O)ccnc2c1 [Example 191, N,N'-(4,7-quinolinediyl)bis[N-[2-(4-chlorophenyl)ethyl]acetamide]] | 0 | 0 | – | 0 | 0 | 0 | 0 | – | – | 0 | 0 | – | – | 20 to 89 | 90 to 100 | 0 to 19 | 0 to 19 | 0 to 19 | – |
| Cc1ccc(CCOc2cc(Cl)nc3c(F)cccc23)cc1 [Example 193, 2-chloro-8-fluoro-4-[2-(4-methylphenyl)ethoxy]quinoline] | 0 | 0 | – | 0 | 0 | 0 | 0 | – | – | 0 | 0 | – | – | 0 to 19 | 20 to 89 | 0 to 19 | 0 to 19 | 0 to 19 | – |
| Clc1cc(Cl)c2c(OCCc3ccc(-c4ccccc4)cc3)ccnc2c1 [Example 194, 5,7-dichloro-4-[2-(1,1'-biphenyl)-4-ylethoxy]quinoline] | 0 | 0 | – | 0 | 0 | 0 | 0 | – | – | 0 | 0 | – | – | 0 to 19 | 0 to 19 | 0 to 19 | 20 to 89 | 0 to 19 | – |
| COc1cccc(CCOc2ccnc3c(F)cccc23)c1 [Example 195, 4-[2-(3-methoxyphenyl)ethoxy]-8-fluoroquinoline] | – | 0 | – | – | 0 | – | 0 | – | – | – | 0 | – | – | 90 to 100 | 90 to 100 | 90 to 100 | 90 to 100 | 0 to 19 | – |
| COc1ccc(CCOc2ccnc3c(F)cccc23)cc1 [Example 196, 8-fluoro-4-[2-(4-methoxyphenyl)ethoxy]quinoline] | – | 100 | – | – | 100 | – | 0 | – | – | – | 0 | – | – | 90 to 100 | 90 to 100 | 90 to 100 | 90 to 100 | 0 to 19 | particularly excellent activity |
| Fc1cccc2c(OCCc3cccc(Oc4ccccc4)c3)ccnc12 [Example 197, 8-fluoro-4-[2-(3-phenoxyphenyl)ethoxy]quinoline] | – | 90 | – | – | 80 | – | 0 | – | – | – | 80 | – | – | 90 to 100 | 90 to 100 | 20 to 89 | 90 to 100 | 0 to 19 | particularly excellent activity |
| CC(C)(C)c1ccc(CCOc2ccnc3c(Br)cccc23)cc1 [Example 198, 8-bromo-4-[2-(4-(t-butyl)phenyl)ethoxy]quinoline] | – | 90 | – | – | 80 | – | 0 | – | – | – | 0 | – | – | 0 to 19 | 0 to 19 | 0 to 19 | 0 to 19 | 0 to 19 | – |
| COc1ccc(CCOc2ccnc3c(F)cccc23)cc1OC [Example 199, 4-[2-(3,4-dimethoxyphenyl)ethoxy]-8-fluoroquinoline] | – | 0 | – | – | 0 | – | 100 | – | – | – | 0 | – | – | 90 to 100 | 90 to 100 | 90 to 100 | 90 to 100 | 0 to 19 | – |
